Ends that are not written are not given here.

These results are taken from patent US12698308B2, “Peptide for preventing or treating inflammatory diseases” (AJOU UNIVERSITY INDUSTRY-ACADEMIC COOPERATION FOUNDATION, priority 2021, dated 2026).

For one assay, the system named is IL-1 beta. As to the kind of experiment: Genetic analysis via real-time PCR in vitro, cytokine expression in cultured cells. The assay is classed as cell-based, mouse. Particulars: for cytokine IL-1 beta in the spleen: peptide treatment 24 hours, FIG. 2D; for cytokine IL-1 beta in the lymph node: FIG. 2H.
The test system of assay [1] is mice with Behçet's disease. As to the kind of experiment: Skin symptom improvement in mice with Behçet's disease. The assay is classed as in vivo. Particulars: external agent on skin, 1 μg/mouse once a day for 10 days; FIG. 6. The procedure: After applying the peptide-including external agent used in the Experimental Example 5 to the skin of mice with Behçet's disease, changes in the symptom improvement were checked. Administration was performed by 1 μg/mouse once a day for 10 days.

The next assay concerns IL-17. Put plainly: Genetic analysis via real-time PCR in vitro, cytokine expression in cultured cells. The format is cell-based, mouse. Particulars: for cytokine IL-17 in the lymph node: FIG. 2E; for cytokine IL-17 in the spleen: peptide treatment 24 hours, FIG. 2A. The procedure: (§1) While culturing spleen cells isolated from the spleen of 4-week-old male ICR mice weighing 25 g, various types of peptides having lipidized at terminus of the peptides were treated to cells, and changes in cytokine expression were observed via real-time PCR. Spleen cell isolation was performed by cutting out the spleen from mice, placing the spleen on a cell filter, crushing the spleen on a Petri dish through the cell filter using the plunger tip of a syringe, rinsing the cell filter with PBS, and transferring the suspended cells to 15 mL conical tube. Cells were centrifuged at 4° C. and 800×g for 5 minutes. Subsequently, the supernatant was discarded, and the pellets were resuspended in 1 mL of ACK buffer (ammonium-chloride-potassium lysing buffer). After leaving at room temperature for 5 to 10 minutes, […] of PBS at 4° C. was added, and the cells were centrifuged again at 4° C. and 800×g for 5 minutes. The supernatant was discarded again, the pellets were resuspended in 5 mL of culture, and 2×10^6 cells/mL were cultured in DMEM medium. Before culturing spleen cells in an incubator, 1 μg/mL anti-CD3 Ab was coated on the bottom of a culture container, after 24 hours, culture was performed for 3 days in DMEM medium including 1 μg of anti-CD28 Ab, 20 ng of IL-6, 5 ng of TGF beta, and 20 ng of IL-23 per 1 mL of culture medium, and then the peptides were treated, followed by culture for another 24 hours.

The next assay relates to TNF-alpha. The description is as above. The assay is classed as cell-based, mouse. As to conditions: for cytokine TNF-alpha in the spleen: peptide treatment 24 hours, FIG. 2C; for cytokine TNF-alpha in the lymph node: FIG. 2G. How it is done: as §1
For another assay, the system named is ROR-gammaT gene. Put plainly: Genetic analysis via real-time PCR in vitro, gene expression in cultured cells. Particulars: for expression of ROR-gammaT gene in the lymph node: FIG. 2F. The format is cell-based, mouse. How it is done:
as §1
(In qPCR the cycle at which signal appears reflects the starting amount.)

Assay [2] relates to arthritis model mice (collagen induced arthritis, CIA). Put plainly: Ankle thickness in collagen induced arthritis (CIA) mice. The format is in vivo, mouse. As to conditions: at day 30, compared to arthritis mice (control) without receiving peptides; FIGS. 9A-9B. The procedure: (§2) Collagen was mixed with an adjuvant and injected subcutaneously into the tail twice (Day 1 and Day 11) to prepare arthritis model mice. The adjuvant is a mixture of 17 μL of high-concentration paraffin oil (Fisher, cat. no. 0122-1) and 68 μg (17 μL) of complete Freund adjuvant (CFA; Sigma-Aldrich, cat. no. F5881), which was used by mixing with 34 μg (17 μL) of bovine type II collagen (MD bioproducts cat. no. 804001-Sol). From the day after the second collagen injection (day 12), 1 μg (100 μL) of peptide was administered intramuscularly to the hind legs 10 times (once every 2 days), and mouse peripheral blood cells were isolated to analyze the frequency of Ly6G+ cells via flow cytometry. Peripheral blood cells were isolated from mouse hearts, red blood cells were lysed in ACK buffer (ammonium-chloride-potassium lysing buffer), and then centrifugation was performed to collect only blood cells to be used for antibody staining for the analysis with the flow cytometer. Using Ly6G+ as a neutrophil marker, whether the peptide inhibits a frequency of inflammation-induced neutrophil cells in an arthritis model was determined. Methotrexate (MTX) was used as a control drug.
Since the thickness of the ankle increases due to edema caused by arthritis, the ankle thickness was measured to determine whether peptide administration may relieve edema caused by inflammation. The ankle thickness was measured with a digital caliper at the thickest part of the ankle.

The test system of a further assay is Ly6G+ (neutrophil) cells. As to the kind of experiment: Frequency of Ly6G+ (neutrophil) cells in peripheral blood of collagen induced arthritis (CIA) mice. Particulars: 1 μg intramuscularly 10 times (once every 2 days), FIG. 8. The format is in vivo, mouse. How it is done:
as §2

In the case of “P1M: P1 peptide (SEQ ID NO: 1) with myristoylation, component of P124-M (LICPEKYCNKVHT; cysteine pairing not given here; also: myristoylation) [Peptide P1M]”, the “cytokine IL-1 beta in the spleen” value in the assay with IL-1 beta is on record as “reduced”.

For “GCAATCPEAKPREIVECCSTDKCNH (SEQ ID NO: 7) (E4) [Peptide E4]”, the skin symptom improvement result in assay [1] was “almost disappeared after 10 days, and the wound healed”.

Consider “P2M: P2 peptide (SEQ ID NO: 2) with myristoylation, component of P124-M (YCNKVHTCRNG; cysteine pairing not given here; also: myristoylation) [Peptide P2M]”, for which, in the assay on IL-17, the “cytokine IL-17 in the lymph node” value was “reduced” and the “cytokine IL-17 in the spleen” value is reported as “reduced”. The “cytokine TNF-alpha in the spleen” value in the assay on TNF-alpha is listed as “reduced”.

As for “TCPEAKPREIVECCSTDKCNH (SEQ ID NO: 6) (E3) [Peptide E3]”, in the assay on IL-17, the “cytokine IL-17 in the lymph node” value was “reduced” and the “cytokine IL-17 in the spleen” value is recorded as “reduced”. For the same substance, in the assay with TNF-alpha, the “cytokine TNF-alpha in the lymph node” value is “reduced” and the “cytokine TNF-alpha in the spleen” value is listed as “reduced”. Moreover, the “expression of ROR-gammaT gene in the lymph node” value (“expression … in the lymph node” below) with ROR-gammaT gene is reported as “reduced”. Besides, the “expression of ROR-gammaT gene in the spleen” value in the assay with ROR-gammaT gene (spleen, peptide treatment 24 hours, FIG. 2B) is listed as “reduced”. Besides, in the assay on IL-1 beta, the “cytokine IL-1 beta in the lymph node” value was “reduced” and the “cytokine IL-1 beta in the spleen” value was “reduced”. Also, in assay [2], the “thickness of the ankle” value was “significantly reduced”.

As to “LTCLICPEKYCNKVHTCRNGENICF (SEQ ID NO: 5) (E2) [Peptide E2]”, in the assay with IL-17, the “cytokine IL-17 in the lymph node” value was “reduced” and the “cytokine IL-17 in the spleen” value is given as “reduced”. In the assay on TNF-alpha, the “cytokine TNF-alpha in the lymph node” value is on record as “reduced” and the “cytokine TNF-alpha in the spleen” value was “reduced”. In addition, the “expression … in the lymph node” value in the assay with ROR-gammaT gene is reported as “reduced”. Also, the “cytokine IL-1 beta in the spleen” value in the assay on IL-1 beta is given as “reduced”. In addition, the skin symptom improvement entry in assay [1] is “improved the skin erythema”. For the same substance, the “thickness of the ankle” value in assay [2] is given as “significantly reduced”.

Consider “LICPEKYCNKVHTCRNGENICF (SEQ ID NO: 4) (E1) [Peptide E1]”, for which, in the assay on IL-17, the “cytokine IL-17 in the lymph node” value was “reduced” and the “cytokine IL-17 in the spleen” value is given as “reduced”. Further, in the assay on TNF-alpha, the “cytokine TNF-alpha in the spleen” value is reported as “reduced”. The “expression … in the lymph node” value in the assay with ROR-gammaT gene is given as “reduced”. For the same substance, in the assay with IL-1 beta, the “cytokine IL-1 beta in the lymph node” value was “reduced” and the “cytokine IL-1 beta in the spleen” value is given as “reduced”. In addition, the skin symptom improvement entry in assay [1] was “the symptom almost disappeared after 10 days”. The “frequency of Ly6G+ cells” value in the assay with Ly6G+ (neutrophil) cells is recorded as “decreased to a statistically significant level”. In assay [2], the “thickness of the ankle” value is “significantly reduced”.

Turning to “P4M: P4 peptide (SEQ ID NO: 3) with myristoylation, component of P124-M (HTCRNGENICF; cysteine pairing not given here; also: myristoylation) [Peptide P4M]”, the “cytokine IL-17 in the lymph node” value in the assay with IL-17 is listed as “reduced”. Further, the “cytokine TNF-alpha in the spleen” value in the assay on TNF-alpha is given as “reduced”. In addition, the “cytokine IL-1 beta in the spleen” value in the assay with IL-1 beta is reported as “reduced”.
